Oligonucleotides are written 5' to 3', each unit as a sugar letter and its base; * is a phosphorothioate linkage, no mark a phosphodiester; rarer units and linkages stand in square brackets, end groups in braces. Plain capitals give the bases only. Oligonucleotides are given in HELM: sugar(base)linkage, 5' to 3'; d 2'-deoxyribose, r ribose, m 2'-O-methylribose, p phosphate. ss, as = sense and antisense strand; d = 2'-deoxy (DNA); r = 2'-OH (RNA)
biological target: UBE2M; experiment: reporter assay of Huesken 2005; settings: siRNA
Note: test concentration or dose not given here.

Substance	normalised inhibition (eCFP-eYFP dual reporter) [%]
sense rGrGrUrCrUrArUrCrArCrCrCrCrArArCrArUrUdTdT / antisense rArArUrGrUrUrGrGrGrGrUrGrArUrArGrArCrCdAdT	79.7
sense rCrArUrGrCrGrGrGrGrUrGrGrCrUrArCrArUrCdTdT / antisense rGrArUrGrUrArGrCrCrArCrCrCrCrGrCrArUrGdGdA	67.7
sense rArArCrUrCrCrArUrArArUrUrUrArUrGrGrCrCdTdT / antisense rGrGrCrCrArUrArArArUrUrArUrGrGrArGrUrUdTdA	49.7
sense rGrGrGrCrArGrCrArGrCrArArGrArArGrGrCrGdTdT / antisense rCrGrCrCrUrUrCrUrUrGrCrUrGrCrUrGrCrCrCdTdT	58.9
sense rCrGrGrGrGrUrGrGrCrUrArCrArUrCrGrGrCrUdTdT / antisense rArGrCrCrGrArUrGrUrArGrCrCrArCrCrCrCrGdCdA	54.3
sense rArArGrArGrUrGrGrGrArArGrUrUrUrGrUrGrUdTdT / antisense rArCrArCrArArArCrUrUrCrCrCrArCrUrCrUrUdGdT	85.1
sense rCrArCrCrCrCrArArCrArUrUrGrArCrCrUrCrGdTdT / antisense rCrGrArGrGrUrCrArArUrGrUrUrGrGrGrGrUrGdAdT	62.5
sense rGrGrCrCrArGrGrGrUrUrArCrCrCrGrCrArUrGdTdT / antisense rCrArUrGrCrGrGrGrUrArArCrCrCrUrGrGrCrCdCdA	73.8
sense rGrGrCrGrGrCrGrCrArGrCrUrGrCrGrGrArUrCdTdT / antisense rGrArUrCrCrGrCrArGrCrUrGrCrGrCrCrGrCrCdGdA	71.7
sense rGrGrGrCrCrArGrGrGrUrUrArCrCrCrGrCrArUdTdT / antisense rArUrGrCrGrGrGrUrArArCrCrCrUrGrGrCrCrCdAdC	79.3
sense rGrArCrArArUrGrGrUrCrUrArUrCrArCrCrCrCdTdT / antisense rGrGrGrGrUrGrArUrArGrArCrCrArUrUrGrUrCdTdC	61.8
sense rGrGrGrCrGrGrCrArCrCrArArGrGrGrCrArGrCdTdT / antisense rGrCrUrGrCrCrCrUrUrGrGrUrGrCrCrGrCrCrCdGdC	64.9
sense rUrArArGrGrUrGrGrGrCrCrArGrGrGrUrUrArCdTdT / antisense rGrUrArArCrCrCrUrGrGrCrCrCrArCrCrUrUrAdAdA	69.9
sense rArGrGrGrCrArArCrGrUrCrUrGrCrCrUrCrArAdTdT / antisense rUrUrGrArGrGrCrArGrArCrGrUrUrGrCrCrCrUdCdG	79.5
sense rCrUrUrCrUrCrArGrArUrCrCrArGrArCrGrArCdTdT / antisense rGrUrCrGrUrCrUrGrGrArUrCrUrGrArGrArArGdCdT	65.6
sense rCrCrGrCrArGrArGrGrUrCrCrUrGrCrArGrArAdTdT / antisense rUrUrCrUrGrCrArGrGrArCrCrUrCrUrGrCrGrGdCdC	67.1
sense rCrUrUrCrUrArCrArArGrArGrUrGrGrGrArArGdTdT / antisense rCrUrUrCrCrCrArCrUrCrUrUrGrUrArGrArArGdCdC	75.9
sense rGrUrGrArUrArUrCrArGrCrUrUrCrUrCrArGrAdTdT / antisense rUrCrUrGrArGrArArGrCrUrGrArUrArUrCrArCdAdC	70.3
sense rArGrGrArCrUrGrGrArArGrCrCrArGrUrCrCrUdTdT / antisense rArGrGrArCrUrGrGrCrUrUrCrCrArGrUrCrCrUdCdT	54.1
sense rGrArUrGrArGrGrGrCrUrUrCrUrArCrArArGrAdTdT / antisense rUrCrUrUrGrUrArGrArArGrCrCrCrUrCrArUrCdAdG	82.7
sense rArGrGrCrCrGrCrArGrArGrGrUrCrCrUrGrCrAdTdT / antisense rUrGrCrArGrGrArCrCrUrCrUrGrCrGrGrCrCrUdCdC	65.4
sense rGrArGrGrArGrUrCrGrGrCrGrGrGrCrGrGrCrAdTdT / antisense rUrGrCrCrGrCrCrCrGrCrCrGrArCrUrCrCrUrCdCdT	59.9

biological target: SOST; experiment: reporter assay of Huesken 2005; settings: siRNA

Substance	normalised inhibition (eCFP-eYFP dual reporter) [%]
RNA1{r(C)p.r(U)p.r(C)p.r(A)p.r(A)p.r(G)p.r(G)p.r(A)p.r(C)p.r(U)p.r(U)p.r(C)p.r(G)p.r(G)p.r(G)p.r(A)p.r(C)p.r(C)p.r(G)p.d(T)p.d(T)}|RNA2{r(C)p.r(G)p.r(G)p.r(U)p.r(C)p.r(C)p.r(C)p.r(G)p.r(A)p.r(A)p.r(G)p.r(U)p.r(C)p.r(C)p.r(U)p.r(U)p.r(G)p.r(A)p.r(G)p.d(C)p.d(T)}$$$RNA1{StrandType:ss}|RNA2{StrandType:as}$	62.6
RNA1{r(A)p.r(G)p.r(C)p.r(U)p.r(C)p.r(A)p.r(A)p.r(G)p.r(G)p.r(A)p.r(C)p.r(U)p.r(U)p.r(C)p.r(G)p.r(G)p.r(G)p.r(A)p.r(C)p.d(T)p.d(T)}|RNA2{r(G)p.r(U)p.r(C)p.r(C)p.r(C)p.r(G)p.r(A)p.r(A)p.r(G)p.r(U)p.r(C)p.r(C)p.r(U)p.r(U)p.r(G)p.r(A)p.r(G)p.r(C)p.r(U)p.d(C)p.d(C)}$$$RNA1{StrandType:ss}|RNA2{StrandType:as}$	64.7
RNA1{r(C)p.r(C)p.r(A)p.r(C)p.r(C)p.r(G)p.r(G)p.r(A)p.r(G)p.r(C)p.r(U)p.r(G)p.r(G)p.r(A)p.r(G)p.r(A)p.r(A)p.r(C)p.r(A)p.d(T)p.d(T)}|RNA2{r(U)p.r(G)p.r(U)p.r(U)p.r(C)p.r(U)p.r(C)p.r(C)p.r(A)p.r(G)p.r(C)p.r(U)p.r(C)p.r(C)p.r(G)p.r(G)p.r(U)p.r(G)p.r(G)p.d(A)p.d(G)}$$$RNA1{StrandType:ss}|RNA2{StrandType:as}$	86.7
RNA1{r(C)p.r(C)p.r(G)p.r(C)p.r(U)p.r(A)p.r(C)p.r(G)p.r(U)p.r(G)p.r(A)p.r(C)p.r(C)p.r(G)p.r(A)p.r(U)p.r(G)p.r(G)p.r(G)p.d(T)p.d(T)}|RNA2{r(C)p.r(C)p.r(C)p.r(A)p.r(U)p.r(C)p.r(G)p.r(G)p.r(U)p.r(C)p.r(A)p.r(C)p.r(G)p.r(U)p.r(A)p.r(G)p.r(C)p.r(G)p.r(G)p.d(G)p.d(T)}$$$RNA1{StrandType:ss}|RNA2{StrandType:as}$	64.7
RNA1{r(U)p.r(U)p.r(C)p.r(A)p.r(C)p.r(C)p.r(C)p.r(G)p.r(C)p.r(U)p.r(A)p.r(C)p.r(G)p.r(U)p.r(G)p.r(A)p.r(C)p.r(C)p.r(G)p.d(T)p.d(T)}|RNA2{r(C)p.r(G)p.r(G)p.r(U)p.r(C)p.r(A)p.r(C)p.r(G)p.r(U)p.r(A)p.r(G)p.r(C)p.r(G)p.r(G)p.r(G)p.r(U)p.r(G)p.r(A)p.r(A)p.d(G)p.d(T)}$$$RNA1{StrandType:ss}|RNA2{StrandType:as}$	57.5
RNA1{r(C)p.r(A)p.r(G)p.r(G)p.r(C)p.r(G)p.r(U)p.r(U)p.r(C)p.r(A)p.r(A)p.r(G)p.r(A)p.r(A)p.r(U)p.r(G)p.r(A)p.r(U)p.r(G)p.d(T)p.d(T)}|RNA2{r(C)p.r(A)p.r(U)p.r(C)p.r(A)p.r(U)p.r(U)p.r(C)p.r(U)p.r(U)p.r(G)p.r(A)p.r(A)p.r(C)p.r(G)p.r(C)p.r(C)p.r(U)p.r(G)p.d(C)p.d(C)}$$$RNA1{StrandType:ss}|RNA2{StrandType:as}$	82.4

From the OligoGym collection
